Reference: article PMC11267363, “Supramolecular Nanofibers Ameliorate Bleomycin‐Induced Pulmonary Fibrosis by Restoring Autophagy” (Advanced Science, 2024)
Ends that are not written are not given here.

What was measured:
[1] = tested on: MRC-5 cells; assay: Western blot of α-SMA, Col 1 and fibronectin in TGF-β1 treated MRC-5 cells; type: cell-based, human; settings: MRC-5 cells treated with TGF-β1, western blot, n = 3
Text: The progression of pulmonary fibrosis is closely associated with impaired autophagic flux by promoting the differentiation of fibroblast into myofibroblast. Given that Ac‐GFFY‐A2 peptide nanofibers have ability to restore the impaired autophagy, we proceeded to investigate their potential anti‐fibrotic effect. Fibroblasts and myofibroblasts are activated after tissue injury and in IPF patients, leading to increased ECM production and enhanced fibroblast migratory capacity.
Western blot analysis and co-immunoprecipitation
Total proteins were exacted from cells or tissues with RIPA lysis buffer (Beyotime Biotecnology). The protein concentration was measured using BCA Protein Assay Kit (Thermo Scientific). Equal amounts of lysates were resolved by SDS–PAGE. The protein transferred PVDF membranes were incubated with following primary antibodies at 4°C overnight: Then the membranes were incubated with horseradish peroxidase (HRP)-conjugated secondary antibodies at room temperature for 1 h, and protein signals were detected using an enhanced chemiluminescence kit (Pierce). […] The co -precipitates were resolved using SDS–PAGE and detected with immunoblotting. […]
The mice were then intravenously injected with 200 μL of sulfo-Cy5 labeled peptide (0.3 mg per mouse). Fluorescence imaging was performed using a IVIS Lumina II imaging (PerkinElmer, USA) at different time point post injection. […]

[2] = tested on: autophagic flux in activated MRC-5 cells; assay: Autophagic flux (LC3-II:LC3-I, p62 western blot; mRFP-GFP-LC3 live-cell imaging); type: cell-based, human; settings: TGF-β1 10 ng/mL, peptide 50 µM, 24 h
Protocol: According to the manufacturer's instructions, MRC-5 cells were infected with mRFP-GFP-LC3 adenoviral particles. After infection, the cells were cultured for another 24 h and seeded on a CLSM dish at a density of 5 × 10^4 cells. After adherence, the cells were treated with 0 or 10 ng mL^-1 TGF-β1 for 24 h. On the other hand, in order to detect whether peptide could regulate the autophagic flux, the stable infected MRC-5 cells were seeded on a CLSM dish at a density of 5 × 10^4 cells. After adherence, the cells were treated with saline, Ac-GFFY-A2 (50 μM) or A2 (50 μM) plus TGF-β1 (10 ng mL^-1) for 24 h. The cells solely treated by saline as control group. Discarding the medium and washing the cells with cold PBS buffer. The autophagic flux was detected by Live Cell Imaging Microscopy (Leica TCS SP5). page 18: […] -3' and [NT]. […] The autophagic flux was detected by Live Cell Imaging Microscopy (Leica TCS SP5). […] The protein concentration was measured using BCA Protein Assay Kit (Thermo Scientific). […] The protein transferred PVDF membranes were incubated with following primary antibodies at 4°C overnight: Then the membranes were incubated with horseradish peroxidase (HRP)-conjugated secondary antibodies at room temperature for 1 h, and protein signals were detected using an enhanced chemiluminescence kit (Pierce). […] The co -precipitates were resolved using SDS-PAGE and detected with immunoblotting. […]

| Substance | protein expression of α-SMA, col 1 and fibronectin [1] | autophagic flux [2] |
| --- | --- | --- |
| Ac-GFFYGGWLTRLLQTK-OH [Ac-GFFY-A2] | remarkably reduced | restoration of autophagic flux |
| GGWLTRLLQTK-OH [A2, reference compound] | hardly inhibited fibroblast to myofibroblast differentiation | barely increased |
